Assay results taken from patent EP0912534B1, “MUSCARINIC ANTAGONISTS” (SCHERING CORPORATION, priority 1996, dated 1998).
Where two headings read alike, the source gives them in different places.

Key:
[1] = molecular target: T1, cloned human m1 muscarinic receptor (Homo sapiens, UniProt P11229); test: Muscarinic binding activity (3H-QNB displacement), m1
T1 sequence (P11229 1-460): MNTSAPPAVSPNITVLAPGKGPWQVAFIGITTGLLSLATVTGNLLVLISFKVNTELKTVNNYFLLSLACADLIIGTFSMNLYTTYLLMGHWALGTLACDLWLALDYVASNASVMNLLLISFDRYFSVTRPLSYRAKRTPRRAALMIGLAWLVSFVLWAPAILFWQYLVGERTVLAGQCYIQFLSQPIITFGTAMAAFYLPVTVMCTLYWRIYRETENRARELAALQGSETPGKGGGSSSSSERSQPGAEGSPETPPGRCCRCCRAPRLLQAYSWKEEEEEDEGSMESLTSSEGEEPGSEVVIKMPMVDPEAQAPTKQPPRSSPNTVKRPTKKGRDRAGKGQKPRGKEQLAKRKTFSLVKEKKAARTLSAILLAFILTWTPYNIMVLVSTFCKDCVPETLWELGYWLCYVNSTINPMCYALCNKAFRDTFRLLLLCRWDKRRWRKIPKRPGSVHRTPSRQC

[2] = molecular target: T2, cloned human m4 muscarinic receptor (Homo sapiens, UniProt P08173); test: Muscarinic binding activity (3H-QNB displacement), m4
T2 sequence (P08173 1-479): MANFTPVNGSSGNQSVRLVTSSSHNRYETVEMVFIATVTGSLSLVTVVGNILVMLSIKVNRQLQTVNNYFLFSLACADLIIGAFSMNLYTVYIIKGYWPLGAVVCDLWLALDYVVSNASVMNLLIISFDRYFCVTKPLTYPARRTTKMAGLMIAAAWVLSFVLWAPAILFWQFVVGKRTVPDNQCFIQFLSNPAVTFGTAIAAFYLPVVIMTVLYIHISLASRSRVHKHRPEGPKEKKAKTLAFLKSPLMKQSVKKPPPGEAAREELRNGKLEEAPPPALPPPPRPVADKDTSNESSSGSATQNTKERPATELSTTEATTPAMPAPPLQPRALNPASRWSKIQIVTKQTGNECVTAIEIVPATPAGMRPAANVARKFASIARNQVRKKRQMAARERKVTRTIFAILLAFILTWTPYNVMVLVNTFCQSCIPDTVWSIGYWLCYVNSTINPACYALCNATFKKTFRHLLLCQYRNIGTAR

[3] = molecular target: T3, cloned human m2 muscarinic receptor (Homo sapiens, UniProt P08172); test: Muscarinic binding activity (3H-QNB displacement), m2
T3 sequence (P08172 1-466): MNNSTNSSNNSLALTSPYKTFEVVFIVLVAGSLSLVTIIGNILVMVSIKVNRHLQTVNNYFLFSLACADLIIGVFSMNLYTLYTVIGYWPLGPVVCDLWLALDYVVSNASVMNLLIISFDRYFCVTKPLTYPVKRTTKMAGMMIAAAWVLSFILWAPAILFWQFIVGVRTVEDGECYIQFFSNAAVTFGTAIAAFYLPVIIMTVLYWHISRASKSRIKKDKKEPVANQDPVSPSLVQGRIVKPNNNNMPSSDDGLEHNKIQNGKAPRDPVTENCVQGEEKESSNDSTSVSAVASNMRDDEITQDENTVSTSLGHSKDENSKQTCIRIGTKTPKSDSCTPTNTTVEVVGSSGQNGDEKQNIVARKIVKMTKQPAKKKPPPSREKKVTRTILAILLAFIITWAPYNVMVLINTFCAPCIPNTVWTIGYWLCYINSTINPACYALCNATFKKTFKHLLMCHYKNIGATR

[4] = system: Release of Acetyl Choline (ACh) from Striatum; test: Microdialysis: release of acetylcholine from striatum of conscious rats; assay type: in vivo, male Sprague-Dawley Rats; settings: 10 mg/kg peritoneal, 3 rats, Isomer A
Description: The skull was exposed and drilled through to the dura at a point 0.2 mm anterior and 3.0 mm lateral to the bregma. At these coordinates, a guide cannula was positioned at the outer edge of the dura through the drilled opening, lowered perpendicularly to a depth of 2.5 mm, and permanently secured with dental cement to bone screws. Following the surgery, rats were given ampicillin (40 mg/kg, ip) and individually housed in modified cages. A recovery period of approximately 3 to 7 days was allowed before the microdialysis procedure was undertaken. • Microdialysis: All of the equipment and instrumentation used to conduct in vivo microdialysis was obtained from Bioanalytical Systems, Inc. (BAS). The microdialysis procedure required the insertion through the guide cannula of a thin, needle-like perfusable probe (CMA/12.3 mm x 0.5 mm) to a depth of 3 mm in striatum beyond the end of the guide. The probe was connected beforehand with tubing to a microinjection pump (CMA-/100). Rats were collared and tethered, and, following probe insertion, were placed in a large clear plexiglass bowl with litter material and access to food and water. The probe was perfused at 2 µl/min with Ringer's buffer (NaCl 147 mM; KCI 3.0 mM; CaCl2 1.2 mM; MgCl2 1.0 mM) containing 5.5 mM glucose, 0.2 mM L-ascorbate, and 1 µM neostigmine bromide at pH 7.4. To achieve stable baseline readings, microdialysis was allowed to proceed for 90 minutes prior to the collection of fractions. Fractions (20 µl) were obtained at 10-minute intervals over a 3-hour period using a refrigerated collector (CMA/170 or 200). Following the collection of four to five baseline fractions, the drug or combination of drugs to be tested was administered to the animal. Once collection was complete, each rat was autopsied to determine how accurately the probe was placed. • Acetylcholine (ACh) analysis: The concentration of ACh in collected samples of microdialysate was determined using HPLC/electrochemical detection. Samples were auto-injected (Waters 712 Refrigerated Sample Processor) onto a polymeric analytical HPLC column (BAS, MF-6150) and eluted with 50 mM Na2HPO4, pH 8.5. To prevent bacterial growth, Kathon CG reagent (0.005%) (BAS) was included in the mobile phase. Eluate from the analytical column, containing separated ACh and choline, was then immediately passed through an immobilized enzyme reactor cartridge (BAS, MF-6151) coupled to the column outlet. The reactor contained both acetylcholinesterase and choline oxidase covalently bound to a polymeric backbone. […] Data acquisition was carried out using an IBM Model 70 computer equipped with a microchannel IEEE board. Integration and quantification of peaks were accomplished using "Maxima" chromatography software (Waters Corporation). Total run time per sample was 11 minutes at a flow rate of 1 ml/min. Retention times for acetylcholine and choline were 6.5 and 7.8 minutes respectively. To monitor and correct for possible changes in detector sensitivity during chromatography, ACh standards were included at the beginning, middle and end of each sample queue.
Increases in ACh levels are consistent with presynaptic m2 receptor antagonism.

[5] = membranes of transfected CHO cells, read-out: Ki m1
[6] = membranes of transfected CHO cells, read-out: Ki m4
[7] = membranes of transfected CHO cells, read-out: Ki m2

SMILES | Ki [1, 5] | Ki [2, 6] | Ki [3, 7] | further results
c1cnc(Oc2ccc3c(c2)CCC3N2CCN(C3CCCCC3)CC2)nc1 (single isomer, unassigned) [Compound 10] | 151 nM | 17 nM | 11.5 nM | –
c1cnc(Oc2ccc3c(c2)CCC3N2CCN(C3CCCCC3)CC2)nc1 (single isomer, unassigned) [Compound 11] | 314 nM | – | 88 nM | –
COc1ccc(S(=O)(=O)c2ccc3c(c2)CCC3N2CCN(C3CCCCC3)C[C@H]2C)cc1 (single isomer, unassigned) [Compound 14] | – | – | – | Ki ([1]; Ki m1, membranes of transfected CHO cells): 112 nM; Mean % of baseline ([4]; sample collection time 20 min (control, first baseline, before injection)): 99.47 % of baseline; Mean % of baseline ([4]; sample collection time 30 min (control, second baseline, before injection)): 100.85 % of baseline; Mean % of baseline ([4]; sample collection time 40 min (control, third baseline, before injection)): 99.71 % of baseline; Mean % of baseline ([4]; sample collection time 50 min (compounds injected at 50 minutes)): 99.20 % of baseline; Mean % of baseline ([4]; sample collection time 60 min, injected at 50 min): 100.78 % of baseline; Mean % of baseline ([4]; sample collection time 70 min, injected at 50 min): 86.66 % of baseline; Mean % of baseline ([4]; sample collection time 80 min, injected at 50 min): 95.26 % of baseline; Mean % of baseline ([4]; sample collection time 90 min, injected at 50 min): 95.90 % of baseline; Mean % of baseline ([4]; sample collection time 100 min, injected at 50 min): 102.30 % of baseline; Mean % of baseline ([4]; sample collection time 110 min, injected at 50 min): 108.24 % of baseline; Mean % of baseline ([4]; sample collection time 120 min, injected at 50 min): 85.62 % of baseline; Mean % of baseline ([4]; sample collection time 130 min, injected at 50 min): 103.94 % of baseline; Mean % of baseline ([4]; sample collection time 140 min, injected at 50 min): 99.35 % of baseline; Mean % of baseline ([4]; sample collection time 150 min, injected at 50 min): 91.47 % of baseline; Mean % of baseline ([4]; sample collection time 160 min, injected at 50 min): 90.80 % of baseline; Mean % of baseline ([4]; sample collection time 170 min, injected at 50 min): 89.0 % of baseline; Mean % of baseline ([4]; sample collection time 180 min, injected at 50 min): 83.13 % of baseline; Ki ([2]; Ki m4, membranes of transfected CHO cells): 16 nM; Ki ([3]; Ki m2, membranes of transfected CHO cells): 6.1 nM
O=S(=O)(c1ccccc1)c1ccc2c(c1)CCC2N1CCN(CCO)CC1 (stereo not shown) [Compound 1] | 356 nM | 106 nM | 79 nM | –
O=[N+]([O-])c1ccc(Oc2ccc3c(c2)OCCC3N2CCN(C3CCCCC3)CC2)cc1 (stereo not shown) [Compound 2, 1-Cyclohexyl-4-[7-[(4-nitrophenyl)oxy]-chroman-4-yl]-piperazine] | 42 nM | – | 27 nM | –
Nc1ccc(Oc2ccc3c(c2)OCCC3N2CCN(C3CCCCC3)CC2)cc1 (stereo not shown) [Compound 3] | 82 nM | 37 nM | 130 nM | –
CC(=O)Nc1ccc(Oc2ccc3c(c2)OCCC3N2CCN(C3CCCCC3)CC2)cc1 (stereo not shown) [Compound 4] | 223 nM | > 200 nM | 224 nM | –
c1cnc(Oc2ccc3c(c2)CCCC3N2CCN(C3CCCCC3)CC2)nc1 (stereo not shown) [Compound 5, 4-Cyclohexyl-1-piperazinyl-[6-[(2-pyrimidinyl)oxy]]-1,2,3,4-tetrahydronaphthalene] | 160 nM | 35 nM | 21 nM | –
O=[N+]([O-])c1ccc(Oc2ccc3c(c2)CCCC3N2CCN(C3CCCCC3)CC2)cc1 (stereo not shown) [Compound 6] | 633 nM | 77 nM | 96 nM | –
Nc1ccc(Oc2ccc3c(c2)CCCC3N2CCN(C3CCCCC3)CC2)cc1 (stereo not shown) [Compound 7] | 105 nM | 21 nM | 26 nM | –
c1cnc(Oc2ccc3c(c2)CCC3N2CCN(C3CCCCC3)CC2)nc1 (stereo not shown) [Compound 9] | 265 nM | – | 35 nM | –
c1cnc(Oc2ccc3c(c2)CC(CC2CCCCC2)C3N2CCN(C3CCCCC3)CC2)nc1 (stereo not shown) [Compound 12, 2-[[1-(4-Cyclohexyl-1-piperazinyl)-2-(cyclohexylmethyl)-2,3-dihydro-1H-inden-5-yl]oxy]pyrimidine] | 173 nM | – | 92 nM | –
COc1ccc(S(=O)(=O)c2ccc3c(c2)CCC3N2CCC(N3CCCCC3)CC2)cc1 (stereo not shown) [Compound 13] | 67 nM | 33 nM | 17 nM | –
